Laboratory results: patent US6372799B1, “Non-sedating diphenhydramine metabolites” (Bridge Pharma, Inc., priority 1998, dated 2002)

Test system: physostigmine-induced lethality in mice
Assay: Sedative effects in vivo, physostigmine-induced lethality test
Conditions: result in words, figures not given
Experimental: The physostigmine-induced lethality test is being used in the present studies. This test is a modification of the sedation test technique reported by VILLANI et al., in U.S. Pat. No. 4,659,716. In short, physostigmine (1.9 mg/kg s.c.) produces 90-100% lethality when given to grouped mice with 10 animals in each plastic cage (approx. 11×26×13 cm). Mice administered a sedating agent, such as for example a sedative antihistamine prior to physostigmine are protected and survive. In the present study, test compounds are administered orally 60 minutes prior to physostigmine. The number of survivors is counted 30 minutes after physostigmine administration.

For `CN(C)CCOC(c1ccccc1)c1ccccc1` [diphenhydramine, DIPHENHYDRAMINE], the “sedative activity / sedative side effects” value was “profound sedative side effects”.
